Assays:
[1] = Solubility test in water; type: physicochemical; conditions: thermodynamic from solid; deionized water, shaking and ultrasonic shaking
Description: For the solubility test in water, a sample of less than 10 mg was first precisely weighed and taken and placed into a vial, to which 50 μl of deionized water was added, shaking for 30 seconds and ultrasonic shaking for 1 minute were carried out, and these processes were repeated several times. The water solubility was calculated by measuring the amount of water used to dissolve all the samples.

[2] = Stability confirmation test (impurity formation during storage under severe conditions, liquid chromatography); type: physicochemical
Description: The stability test was carried out for the crystalline forms prepared in the Examples to evaluate the degree to which impurities were formed during storage under severe conditions (moisture-proof condition and high-humidity exposure condition). The results of the stability test under the moisture-proof condition were shown in Table 2 below, and the results of the stability test under the high-humidity exposure condition were shown in Table 3 below. For the stability test, vials containing 10 mg of each sample which was precisely weighed and taken were prepared in the planned quantity, and they were stored by dividing into the moisture-proof condition (60° C. and less than 10% relative humidity) and under the high-humidity exposure condition (60° C. and 95% relative humidity). However, under the high-humidity exposure condition, a stopper of the vial was not used to keep so that the sample is in sufficient contact with a moisture in the air. At a fixed point of time after the initiation of the test, two vials per point of time were taken (number of samples per test n=2). 10 ml of methanol was added to each vial to dissolve the sample, which was then centrifuged. The resulting supernatant was analyzed using a liquid chromatography. The peak area was determined by integration for all detected peaks, and the relative peak area for the main component and the total impurity was calculated and expressed as an average value.

[3] = high-humidity exposure condition (60° C., 95% relative humidity), After 1 week
[4] = high-humidity exposure condition (60° C., 95% relative humidity), After 2 weeks
[5] = high-humidity exposure condition (60° C., 95% relative humidity), After 4 weeks
[6] = high-humidity exposure condition (60° C., 95% relative humidity), Initial
[7] = moisture-proof condition (60° C., less than 10% relative humidity), After 2 weeks
[8] = moisture-proof condition (60° C., less than 10% relative humidity), After 4 weeks
[9] = moisture-proof condition (60° C., less than 10% relative humidity), Initial

| SMILES | solubility [1] [µg/mL] | Peak area of main component [2, 3] [%] | Peak area of total impurities [2, 3] [%] | Peak area of main component [2, 4] [%] | Peak area of total impurities [2, 4] [%] | Peak area of main component [2, 5] [%] | Peak area of total impurities [2, 5] [%] | Peak area of main component [2, 6] [%] | Peak area of total impurities [2, 6] [%] | Peak area of main component [2, 7] [%] | Peak area of total impurities [2, 7] [%] | Peak area of main component [2, 8] [%] | Peak area of total impurities [2, 8] [%] | Peak area of main component [2, 9] [%] | Peak area of total impurities [2, 9] [%] |
| --- | --- | --- | --- | --- | --- | --- | --- | --- | --- | --- | --- | --- | --- | --- | --- |
| CNCc1cn(S(=O)(=O)c2cccc(F)c2)c(-c2ccc(F)cc2F)c1OC [Comparative Example 1, 1-(5-(2,4-difluorophenyl)-1-((3-fluorophenyl)sulfonyl)-4-methoxy-1H-pyrrol-3-yl)-N-methylmethanamine free base] | < 160 | – | – | – | – | – | – | – | – | – | – | – | – | – | – |
| CNCc1cn(S(=O)(=O)c2cccc(F)c2)c(-c2ccc(F)cc2F)c1OC.Cl [Example 1-1, 1-(5-(2,4-difluorophenyl)-1-((3-fluorophenyl)sulfonyl)-4-methoxy-1H-pyrrol-3-yl)-N-methylmethanamine hydrochloride] | – | 99.81 | 0.19 | 99.80 | 0.20 | 99.80 | 0.20 | 99.82 | 0.18 | 99.80 | 0.19 | 99.80 | 0.20 | 99.82 | 0.18 |
| CNCc1cn(S(=O)(=O)c2cccc(F)c2)c(-c2ccc(F)cc2F)c1OC.O=C(O)CCC(=O)O [Example 3-1, 1-(5-(2,4-difluorophenyl)-1-((3-fluorophenyl)sulfonyl)-4-methoxy-1H-pyrrol-3-yl)-N-methylmethanamine succinate] | – | 99.56 | 0.44 | 99.53 | 0.47 | 99.47 | 0.54 | 99.55 | 0.45 | 99.61 | 0.39 | 99.55 | 0.45 | 99.55 | 0.45 |
| CNCc1cn(S(=O)(=O)c2cccc(F)c2)c(-c2ccc(F)cc2F)c1OC.O=C(O)C(O)C(O)C(=O)O [Example 4-1, 1-(5-(2,4-difluorophenyl)-1-((3-fluorophenyl)sulfonyl)-4-methoxy-1H-pyrrol-3-yl)-N-methylmethanamine tartrate] | – | 99.48 | 0.52 | 99.43 | 0.57 | 99.23 | 0.77 | 99.52 | 0.48 | 99.54 | 0.46 | 99.48 | 0.52 | 99.52 | 0.48 |
| CNCc1cn(S(=O)(=O)c2cccc(F)c2)c(-c2ccc(F)cc2F)c1OC.O=C(O)/C=C/C(=O)O [Example 5-1, 1-(5-(2,4-difluorophenyl)-1-((3-fluorophenyl)sulfonyl)-4-methoxy-1H-pyrrol-3-yl)-N-methylmethanamine fumarate] | 1730 to 2600 | 99.40 | 0.60 | 99.32 | 0.68 | 99.30 | 0.70 | 99.38 | 0.62 | 99.36 | 0.64 | 99.37 | 0.63 | 99.38 | 0.62 |
